Results from PMC10974768 (Toxins, 2024).
Values joined by “and” are separate entries in the source; they are usually repeats but may differ in a detail not shown here. Equal entries are not always repeated. Where two headings read alike, the source gives them in different places.

Experiments:
[1] = system: CYP2A6; assay: in vitro; settings: read-out: IC50 for CYP2A6
Procedure: (§1) A cocktail-approach for elucidating the metabolites profiling and CYP450 inhibition was conducted as in Lin et al. with minor changes. The incubation mixture contained 50 μL of 0.2 mg/mL of CLM, 10 μL of 0.1 M phosphate buffer (pH 7.4), 40 μL of 1 mM NADPH and six probe substrates with a total volume of 200 μL. The specific probe substrates used for each CYP450 isoenzyme in the incubation mixture were as follows: PH (CYP1A2), BP (CYP2B6), CLN (CYP2E1), TBD (CYP2C9), CAN (CYP2A6), and MDZ (CYP3A4). Probes substrates were dissolved in methanol as stock solution (1 mg/mL). All of them were diluted to the final concentrations (see Supplemental Materials) with incubation buffer and the percentage of organic solvent in the final incubation volume was below 1% (v/v). Briefly, the mixture was preincubated in a thermoshaker (Biosan, Geraardsbergen, Belgium) for 5 min at 37 °C prior to the initiation of the reaction with NADPH.4Na. After incubation, the mixture was terminated by 400 μL ice-cold acetonitrile. […] A volume of 5 µL of supernatant was analysed using UHPLC-MS/MS.

[2] = system: CYP450 in chicken liver microsomes; assay: in vitro; settings: read-out: IC50 values in chicken liver microsomes (all CYP450 isoforms tested)
Procedure: as §1

[3] = design: species or system broiler chickens (Ross 308); settings: in vivo
[4] = system: broilers; settings: in vivo
[5] = rat, in vivo, po, cited from earlier work
[6] = in vivo, cited from earlier work
[7] = in vivo, po; cited from earlier work
[8] = in vivo, 5 mg/kg; cited from earlier work
[9] = system: CYP1A2 (PH), CYP2B6 (BP), CYP2E1 (CLN), CYP2C9 (TBD), CYP2A6 (CAN), CYP3A4 (MDZ); assay: in vitro; settings: chicken, pH 7.4
Procedure: as §1, with “The incubation mixture contained 50 μL of 0.2 mg/mL of CLM, 10 μL of 0.1 M phosphate buffer (pH 7.4), 40 μL of 1 mM NADPH and six probe substrates with a total volume of 200 μL. The specific probe substrates used for each CYP450 isoenzyme in the incubation mixture were as follows: PH (CYP1A2), BP (CYP2B6), CLN (CYP2E1), TBD (CYP2C9), CAN (CYP2A6), and MDZ (CYP3A4).” left out
(§2) Enzyme kinetic studies were conducted for the six CYP450-related probes reactions. For each probe, the maximum rate of the Vmax and Km were obtained using GraphPad Prism v.8.0.2 software via Michaelis-Menten Kinetic model (La Jolla, CA, USA). The incubation times of 5, 10, 15, 30, 45 and 60 min were tested individually. A series of protein concentrations (0.05, 0.1, 0.2, 0.4, 0.6, 0.8 and 1 mg/mL) of CLM in the incubation mixture were conducted. Triplicate analyses were performed for each incubation system.

[10] = system: chicken liver microsomes (CYP450); assay: in vitro
Procedure: as §1, with “The incubation mixture contained 50 μL of 0.2 mg/mL of CLM, 10 μL of 0.1 M phosphate buffer (pH 7.4), 40 μL of 1 mM NADPH and six probe substrates with a total volume of 200 μL. The specific probe substrates used for each CYP450 isoenzyme in the incubation mixture were as follows: PH (CYP1A2), BP (CYP2B6), CLN (CYP2E1), TBD (CYP2C9), CAN (CYP2A6), and MDZ (CYP3A4).” left out
as §2

[11] = system: CYP2A6; settings: read-out: Km of CYP2A6; turkey; CAN as substrate; cited from earlier work
[12] = system: CYP1A2, CYP3A4; settings: cited from earlier work

Which IC50 [1] does the source give for `COc1cc2c(c3oc(=O)c4c(c13)CCC4=O)[C@@H]1C=CO[C@@H]1O2` [AFB1, aflatoxin B1] here?
Its IC50 is 24.1 µM.

What about the IC50 [2] of the same compound?
Its IC50 is greater than 7.6 µM.

What about the “AUCINF_obs, Control” value [3] of the same compound?
Its value is 94.2 ± 40.4 ** h·ng/mL.

And the “AUCINF_obs, Treatment” value [3]?
Its value is 265.8 ± 222.9 ng·h/mL.

And the “AUClast, Control” value [3]?
The value was 87.5 ± 39.6 ** h·ng/mL.

What about the “AUClast, Treatment” value [3] of the same compound?
The value was 170 ± 103.6 ng·h/mL.

And the “CL_F_obs, Control” value [3]?
Its value is 238 ± 112 mL/min/kg.

And the “CL_F_obs, Treatment” value [3]?
Its value is 157 ± 108 mL/min/kg.

What about the “Cmax, Control” value [3] of the same compound?
The value was 29.3 ± 3.2 ng/mL.

And the “MRTlast, Control” value [3]?
Its value is 4.7 ± 0.7 h.

What about the “MRTlast, Treatment” value [3] of the same compound?
Its value is 6.4 ± 3.2 h.

What about the “T1/2λz, Treatment” value [3] of the same compound?
Its value is 1.4 ± 0.5 h.

What about the “Tmax, Treatment” value [3] of the same compound?
The value was 0.3 ± 0.1 h.

And the “Vd_F_obs, Control” value [3]?
Its value is 14.8 ± 4.8 L/kg.

What about the “Vd_F_obs, Treatment” value [3] of the same compound?
The value was 18.4 ± 7.7 L/kg.

And the “increase of AUClast of AFB1 by TIA” value [3]?
The value was 194%.

And the “increase of mean residence time (MRT) of AFB1 by TIA” value [3]?
Its value is 136%.

What about the “adverse health effects in broilers” value [4] of the same compound?
The value was “No significant adverse health effects”.

What about the “AUC0–24” value ([5]; 1 mg/kg) of the same compound?
Its value is 45.59 ± 17.19 ng·h/mL.

And the CL ([5]; 1 mg/kg)?
The CL was 372.2 ± 163 mL/min/kg.

What about the Cmax ([5]; 1 mg/kg) of the same compound?
The Cmax was 93.42 ± 23.01 ng/mL and 90 ± 20 ng/mL.

What about the Tmax ([5]; 1 mg/kg) of the same compound?
The Tmax was “about 0.15 h”.

And the Vd ([5]; 1 mg/kg)?
Its Vd is 226.46 ± 100.76 L/kg.

What about the T1/2e [5] of the same compound?
Its T1/2e is 7.62 h.

And the “AUC0–t” value ([6]; human)?
The value was 0.0256 ± 0.0063 ng·h/mL.

And the T1/2β ([6]; human)?
Its T1/2β is 64.4 h.

What about the Tmax ([6]; human) of the same compound?
The Tmax was 1.02 ± 0.31 h.

What about the T1/2α [6] of the same compound?
The T1/2α was 2.86 h.

And the Cmax [7]?
Its Cmax is 3.8 ± 0.9 ng/mL.

And the MRT [7]?
Its MRT is 11.73 ± 0.94 h.

And the T1/2e [7]?
Its T1/2e is 15.52 ± 0.51 h.

What about the Tmax [7] of the same compound?
Its Tmax is 0.58 ± 0.17 h.

And the “time for depletion in chicken liver, kidney, and muscle” value [8]?
The value was 10 to 19 days.

For `O=c1ccc2ccccc2o1` [Coumarin], which Km ([9]; broiler) is on record?
The Km was 56.1 µM.

What about the Km [9] of the same compound?
Its Km is 56.1 µM.

And the Vmax ([10]; chicken liver microsomes, Michaelis-Menten, PH (CYP1A2), BP (CYP2B6), CLN (CYP2E1), TBD (CYP2C9), CAN (CYP2A6), MDZ (CYP3A4), n = 3)?
The Vmax was 190.8 nmol/min/mg.

What about the Km [11] of the same compound?
The Km was 33.6 ± 8.52 µM.

For `Cc1ncc2n1-c1ccc(Cl)cc1C(c1ccccc1F)=NC2` [Midazolam], which Km ([9]; broiler) is on record?
Its Km is 3.3 µM.

And the Km [9]?
The Km was 3.31 µM.

What about the Vmax [10] of the same compound?
The Vmax was 37.7 nmol/min/mg.

Which Km ([9]; broiler) does the source give for `CCOc1ccc(NC(C)=O)cc1` [Phenacetin] here?
The Km was 20.7 µM.

And the Km [9]?
The Km was 20.7 µM.

What about the Vmax [10] of the same compound?
Its Vmax is 63.1 nmol/min/mg.

And the Km [12]?
Its Km is 98.1 ± 18.6 µM.

Which Vmax [10] does the source give for `CCCCNC(=O)NS(=O)(=O)c1ccc(C)cc1` [Tolbutamide] here?
The Vmax was 159.4 nmol/min/mg.
